Assays:
22RV1 cells = assay: Cell growth inhibition of 22RV1 cells (CellTiter-Glo); format: cell-based; conditions: Homo sapiens, 22Rv1, 120 h, 5 days, CellTiter-Glo, read-out: 22RV1 Cell Growh GI50
In short: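 22RV1 cells were plated in RPMI1640 with FBS (20% in one version, 10% in the other) and dosed next day at various concentrations from DMSO stocks. After 5 days at 37 °C, viability was measured by CellTiter-Glo luminescence.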

[1] = system: Phospho-Rb (Ser807/811) in MCF7 cells; assay: Phospho-Rb expression inhibition in MCF7 cells quantified by in cell Western; format: cell-based, human; conditions: Homo sapiens, MCF7, 24 h, 24 hours, in cell Western, read-out: MCF7 pRb IC50
In short: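 MCF7 cells were seeded at 20,000/well, grown overnight, then treated 24 h at 37 °C with compound dilutions (0.1% DMSO from 1000× stocks). Fixed cells were co-stained for phospho-Rb Ser807/811 and total Rb. Near-infrared dual-channel in-cell Western imaging was the read-out.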

| Compound | GI50 (22RV1 cells) | IC50 [1] |
| --- | --- | --- |
| C[C@H]1COc2c(-c3nc(N[C@@H]4C[C@H]5CO[C@H](O5)[C@H]4O)ncc3Cl)cc(F)c3c2N1CCO3 [Compound 174, (1S,3R,4S,5R)-3-((5-chloro-4-((S)-9-fluoro-4-methyl-2,3,4,5-tetrahydro-1,6-dioxa-3a-azaphenalen-7-yl)pyrimidin-2-yl)amino)-6,8-dioxabicyclo[3.2.1]octan-4-ol] | 120 to 450 nM | 40 to 150 nM |
| COC(=O)N1CC[C@@H](c2nc3c(F)cc(-c4nc(N[C@@H]5C[C@H]6CO[C@H](O6)[C@H]5O)ncc4Cl)cc3n2C(C)C)C1 [Compound 4, methyl (R)-3-(6-(5-chloro-2-(((1S,3R,4S,5R)-4-hydroxy-6,8-dioxabicyclo[3.2.1]octan-3-yl)amino)pyrimidin-4-yl)-4-fluoro-1-isopropyl-1H-benzo[d]imidazol-2-yl)pyrrolidine-1-carboxylate] | 120 to 450 nM | 40 to 150 nM |
| Cc1c(CN)n(C(C)C)c2cc(-c3nc(N[C@@H]4C[C@H]5CO[C@H](O5)[C@H]4O)ncc3F)ccc2c1=O [Compound 193, 2-(aminomethyl)-7-(5-fluoro-2-(((1S,3R,4S,5R)-4-hydroxy-6,8-dioxabicyclo[3.2.1]octan-3-yl)amino)pyrimidin-4-yl)-1-isopropyl-3-methylquinolin-4(1H)-one] | 120 to 450 nM | 150 to 1000 nM |
| Cc1c(CN2CCC[C@@H](O)C2)n(C(C)C)c2cc(-c3nc(N[C@@H]4C[C@H]5CO[C@H](O5)[C@H]4O)ncc3F)ccc2c1=O [Compound 291, 7-(5-fluoro-2-(((1S,3R,4S,5R)-4-hydroxy-6,8-dioxabicyclo[3.2.1]octan-3-yl)amino)pyrimidin-4-yl)-2-(((R)-3-hydroxypiperidin-1-yl)methyl)-1-isopropyl-3-methylquinolin-4(1H)-one] | 120 to 450 nM | 150 to 1000 nM |
| Cc1c(CN2CC[C@@H](F)C2)n(C(C)C)c2cc(-c3nc(N[C@@H]4C[C@H]5CO[C@H](O5)[C@H]4O)ncc3F)ccc2c1=O [Compound 292, 7-(5-fluoro-2-(((1S,3R,4S,5R)-4-hydroxy-6,8-dioxabicyclo[3.2.1]octan-3-yl)amino)pyrimidin-4-yl)-2-(((R)-3-fluoropyrrolidin-1-yl)methyl)-1-isopropyl-3-methylquinolin-4(1H)-one] | 120 to 450 nM | 40 to 150 nM |
| Cc1c(CN2CCC(F)(F)C2)n(C(C)C)c2cc(-c3nc(N[C@@H]4C[C@H]5CO[C@H](O5)[C@H]4O)ncc3F)ccc2c1=O [Compound 208, 2-((3,3-difluoropyrrolidin-1-yl)methyl)-7-(5-fluoro-2-(((1S,3R,4S,5R)-4-hydroxy-6,8-dioxabicyclo[3.2.1]octan-3-yl)amino)pyrimidin-4-yl)-1-isopropyl-3-methylquinolin-4(1H)-one] | ≤ 120 nM | ≤ 40 nM |
| Cc1c(CN2C[C@@H](C)OC2=O)n(C(C)C)c2cc(-c3nc(N[C@@H]4C[C@H]5CO[C@H](O5)[C@H]4O)ncc3F)ccc2c1=O [Compound 271, (R)-3-((7-(5-fluoro-2-(((1S,3R,4S,5R)-4-hydroxy-6,8-dioxabicyclo[3.2.1]octan-3-yl)amino)pyrimidin-4-yl)-1-isopropyl-3-methyl-4-oxo-1,4-dihydroquinolin-2-yl)methyl)-5-methyloxazolidin-2-one] | > 3000 nM | 150 to 1000 nM |
| COC(=O)N1CC[C@@H](c2nc3c(F)cc(-c4nc(N[C@@H]5[C@H](C)[C@H]6CO[C@H](O6)[C@H]5O)ncc4Cl)cc3n2C(C)C)C1 [Compound 23, methyl (R)-3-(6-(5-chloro-2-(((1S,2S,3R,4S,5R)-4-hydroxy-2-methyl-6,8-dioxabicyclo[3.2.1]octan-3-yl)amino)pyrimidin-4-yl)-4-fluoro-1-isopropyl-1H-benzo[d]imidazol-2-yl)pyrrolidine-1-carboxylate] | 120 to 450 nM | 40 to 150 nM |
| Cc1c(CN2CC(O)C2)n(C(C)C)c2cc(-c3nc(N[C@@H]4C[C@H]5CO[C@H](O5)[C@H]4O)ncc3F)ccc2c1=O [Compound 198, 7-(5-fluoro-2-(((1S,3R,4S,5R)-4-hydroxy-6,8-dioxabicyclo[3.2.1]octan-3-yl)amino)pyrimidin-4-yl)-2-((3-hydroxyazetidin-1-yl)methyl)-1-isopropyl-3-methylquinolin-4(1H)-one] | 450 to 3000 nM | 150 to 1000 nM |
| Cc1c(CN2CCOC2=O)n(C(C)C)c2cc(-c3nc(N[C@@H]4C[C@H]5CO[C@H](O5)[C@H]4O)ncc3F)ccc2c1=O [Compound 211, 3-((7-(5-fluoro-2-(((1S,3R,4S,5R)-4-hydroxy-6,8-dioxabicyclo[3.2.1]octan-3-yl)amino)pyrimidin-4-yl)-1-isopropyl-3-methyl-4-oxo-1,4-dihydroquinolin-2-yl)methyl)oxazolidin-2-one] | > 3000 nM | > 1000 nM |

Continued, values first:

| GI50 (22RV1 cells) | IC50 [1] | Compound |
| --- | --- | --- |
| ≤ 120 nM | ≤ 40 nM | Cc1c(C(C)(C)O)cnc2c(Cl)cc(-c3nc(N[C@@H]4C[C@H]5CO[C@H](O5)[C@H]4O)ncc3Cl)cc12 [Compound 284, (1S,3R,4S,5R)-3-((5-chloro-4-(8-chloro-3-(2-hydroxypropan-2-yl)-4-methylquinolin-6-yl)pyrimidin-2-yl)amino)-6,8-dioxabicyclo[3.2.1]octan-4-ol] |
| 450 to 3000 nM | 150 to 1000 nM | CC(C)n1c(N2C(=O)OC[C@H]2C)nc2c(F)cc(-c3nc(N[C@@H]4C[C@H]5CO[C@H](O5)[C@H]4O)ncc3Cl)cc21 [Compound 296, (R)-3-(6-(5-chloro-2-(((1S,3R,4S,5R)-4-hydroxy-6,8-dioxabicyclo[3.2.1]octan-3-yl)amino)pyrimidin-4-yl)-4-fluoro-1-isopropyl-1H-benzo[d]imidazol-2-yl)-4-methyloxazolidin-2-one] |
| 120 to 450 nM | 40 to 150 nM | Cc1c(-c2nc(N[C@@H]3C[C@H]4CO[C@H](O4)[C@H]3O)ncc2Cl)sc2cc(C(C)(C)O)cnc12 [Compound 260, (1S,3R,4S,5R)-3-((5-chloro-4-(6-(2-hydroxypropan-2-yl)-3-methylthieno[3,2-b]pyridin-2-yl)pyrimidin-2-yl)amino)-6,8-dioxabicyclo[3.2.1]octan-4-ol] |
| ≤ 120 nM | ≤ 40 nM | Cc1c(-c2nc(N[C@@H]3C[C@H]4CO[C@H](O4)[C@H]3O)ncc2F)sc2c(C)c(C(C)(C)O)cnc12 [Compound 278, (1S,3R,4S,5R)-3-((5-fluoro-4-(6-(2-hydroxypropan-2-yl)-3,7-dimethylthieno[3,2-b]pyridin-2-yl)pyrimidin-2-yl)amino)-6,8-dioxabicyclo[3.2.1]octan-4-ol] |
| 450 to 3000 nM | 150 to 1000 nM | CC(C)(O)c1cnc2c(F)cc(-c3nc(N[C@@H]4C[C@H]5CO[C@H](O5)[C@H]4O)ncc3Cl)cc2n1 [Compound 264, (1S,3R,4S,5R)-3-((5-chloro-4-(8-fluoro-3-(2-hydroxypropan-2-yl)quinoxalin-6-yl)pyrimidin-2-yl)amino)-6,8-dioxabicyclo[3.2.1]octan-4-ol] |
| 120 to 450 nM | ≤ 40 nM | CC(C)n1c(C2CC(F)C2)nc2c(F)cc(-c3nc(N[C@@H]4C[C@H]5CO[C@H](O5)[C@H]4O)ncc3Cl)cc21 (stereo partly drawn) [Compound 242, (1S,3R,4S,5R)-3-((5-chloro-4-(4-fluoro-2-((1s,3S)-3-fluorocyclobutyl)-1-isopropyl-1H-benzo[d]imidazol-6-yl)pyrimidin-2-yl)amino)-6,8-dioxabicyclo[3.2.1]octan-4-ol] |
| 450 to 3000 nM | 150 to 1000 nM | C[C@H]1COC[C@H](C)N1Cc1cnc2c(F)cc(-c3nc(N[C@@H]4C[C@H]5CO[C@H](O5)[C@H]4O)ncc3Cl)cc2c1 [Compound 262, (1S,3R,4S,5R)-3-((5-chloro-4-(3-(((3S,5S)-3,5-dimethylmorpholino)methyl)-8-fluoroquinolin-6-yl)pyrimidin-2-yl)amino)-6,8-dioxabicyclo[3.2.1]octan-4-ol] |
| 120 to 450 nM | 150 to 1000 nM | CC(C)n1c(-c2cn[nH]c2)nc2c(F)cc(-c3nc(N[C@@H]4C[C@H]5CO[C@H](O5)[C@H]4O)ncc3Cl)cc21 [Compound 186, (1S,3R,4S,5R)-3-((5-chloro-4-(4-fluoro-1-isopropyl-2-(1H-pyrazol-4-yl)-1H-benzo[d]imidazol-6-yl)pyrimidin-2-yl)amino)-6,8-dioxabicyclo[3.2.1]octan-4-ol] |
| 120 to 450 nM | 40 to 150 nM | CC(C)n1c(C2CC(O)C2)nc2c(F)cc(-c3nc(N[C@@H]4C[C@H]5CO[C@H](O5)[C@H]4O)ncc3Cl)cc21 (stereo partly drawn) [Compound 244, (1S,3R,4S,5R)-3-((5-chloro-4-(4-fluoro-2-((1s,3S)-3-hydroxycyclobutyl)-1-isopropyl-1H-benzo[d]imidazol-6-yl)pyrimidin-2-yl)amino)-6,8-dioxabicyclo[3.2.1]octan-4-ol] |
| 120 to 450 nM | 40 to 150 nM | CC(C)n1c(C(C)(C)N2CCOCC2)nc2c(F)cc(-c3nc(N[C@@H]4C[C@H]5CO[C@H](O5)[C@H]4O)ncc3Cl)cc21 [Compound 219, (1S,3R,4S,5R)-3-((5-chloro-4-(4-fluoro-1-isopropyl-2-(2-morpholinopropan-2-yl)-1H-benzo[d]imidazol-6-yl)pyrimidin-2-yl)amino)-6,8-dioxabicyclo[3.2.1]octan-4-ol] |
| 450 to 3000 nM | 150 to 1000 nM | CC(C)n1c([C@@H]2COC(=O)N2C)nc2c(F)cc(-c3nc(N[C@@H]4C[C@H]5CO[C@H](O5)[C@H]4O)ncc3Cl)cc21 [Compound 185, (R)-4-(6-(5-chloro-2-(((1S,3R,4S,5R)-4-hydroxy-6,8-dioxabicyclo[3.2.1]octan-3-yl)amino)pyrimidin-4-yl)-4-fluoro-1-isopropyl-1H-benzo[d]imidazol-2-yl)-3-methyloxazolidin-2-one] |

Source: patent US20250084095A1, “Aminopyrimidine Derivatives as Cyclin-Dependent Kinase Inhibitors” (Accutar Biotechnology Inc., priority 2023, published 2025)
